Measured values published in the NIST ThermoML archive (doi:10.1021/je2000606).

How the values were obtained:
[1] = 101.33 kPa, Liquid; for viscosity: Falling or rolling sphere viscometry; for mass density: Vibrating tube method
[2] = refractive index (Na D-line) (dimensionless); conditions: 101.33 kPa, Liquid, Standard Abbe refractometry
[3] = refractive index (Na D-line) (dimensionless); xn = mol fraction of the nth substance listed; conditions: 101 kPa, Liquid
[4] = xn = mol fraction of the nth substance listed; conditions: 101 kPa, Liquid

CCCCn1cc[n+](C)c1.C[C@H](N)C(=O)[O-] [3-butyl-1-methyl-1H-imidazolium L-alaninate]
Conditions | mass density, [1] [kg/m3] | refractive index, [2] | viscosity, [1] [mPa·s]
298.15 K | 1080.2 | 1.5184 | 78.3
303.15 K | 1076.5 | 1.5168 | 59.77
308.15 K | 1074.2 | 1.5153 | 47.03
313.15 K | 1071.1 | 1.5135 | 37.95

CCCCn1cc[n+](C)c1.C[C@H](N)C(=O)[O-] [3-butyl-1-methyl-1H-imidazolium L-alaninate] + CO
Conditions | mass density, [4] [kg/m3] | refractive index, [3] | viscosity, [4] [mPa·s]
298.15 K, x1 = 0.0986 | 906.31 | 1.3952 | 1.824
298.15 K, x1 = 0.2015 | 968.55 | 1.438 | 2.979
298.15 K, x1 = 0.2837 | 998.11 | 1.4595 | 4.892
298.15 K, x1 = 0.3985 | 1024.98 | 1.4787 | 8.963
298.15 K, x1 = 0.5105 | 1042.62 | 1.4914 | 15.2
298.15 K, x1 = 0.6035 | 1053.47 | 1.4994 | 22.23
298.15 K, x1 = 0.7011 | 1062.38 | 1.5058 | 31.13
298.15 K, x1 = 0.8152 | 1070.44 | 1.5111 | 45.03
298.15 K, x1 = 0.9139 | 1076 | 1.5147 | 60.33
303.15 K, x1 = 0.0986 | 901.65 | 1.3926 | 1.753
303.15 K, x1 = 0.2015 | 963.93 | 1.435 | 2.76
303.15 K, x1 = 0.2837 | 993.59 | 1.4564 | 3.714
303.15 K, x1 = 0.3985 | 1020.56 | 1.4755 | 6.403
303.15 K, x1 = 0.5105 | 1038.31 | 1.4883 | 10.73
303.15 K, x1 = 0.6035 | 1049.27 | 1.4964 | 16.01
303.15 K, x1 = 0.7011 | 1058.3 | 1.5029 | 22.63
303.15 K, x1 = 0.8152 | 1066.5 | 1.5087 | 32.91
303.15 K, x1 = 0.9139 | 1072.2 | 1.5126 | 45.02
308.15 K, x1 = 0.0986 | 896.59 | 1.3901 | 1.829
308.15 K, x1 = 0.2015 | 959.34 | 1.4323 | 2.349
308.15 K, x1 = 0.2837 | 989.32 | 1.4533 | 3.429
308.15 K, x1 = 0.3985 | 1016.81 | 1.4723 | 5.513
308.15 K, x1 = 0.5105 | 1034.85 | 1.485 | 9.168
308.15 K, x1 = 0.6035 | 1046.07 | 1.493 | 13.4
308.15 K, x1 = 0.7011 | 1055.34 | 1.5 | 18.29
308.15 K, x1 = 0.8152 | 1063.85 | 1.5059 | 26.27
308.15 K, x1 = 0.9139 | 1069.71 | 1.5105 | 35.3
313.15 K, x1 = 0.0986 | 892.46 | 1.3881 | 1.34
313.15 K, x1 = 0.2015 | 955.28 | 1.4297 | 2.113
313.15 K, x1 = 0.2837 | 985.35 | 1.4502 | 2.792
313.15 K, x1 = 0.3985 | 1012.89 | 1.4692 | 5.197
313.15 K, x1 = 0.5105 | 1031.1 | 1.4817 | 8.3
313.15 K, x1 = 0.6035 | 1042.42 | 1.4898 | 11.91
313.15 K, x1 = 0.7011 | 1051.82 | 1.497 | 15.87
313.15 K, x1 = 0.8152 | 1060.49 | 1.5034 | 21.92
313.15 K, x1 = 0.9139 | 1066.51 | 1.5082 | 29.18

CCCCn1cc[n+](C)c1.C[C@H](N)C(=O)[O-] [3-butyl-1-methyl-1H-imidazolium L-alaninate] + OCc1ccccc1
Conditions | mass density, [4] [kg/m3] | refractive index, [3] | viscosity, [4] [mPa·s]
298.15 K, x1 = 0.1012 | 1052.86 | 1.5355 | 6.989
298.15 K, x1 = 0.1939 | 1059.8 | 1.534 | 8.647
298.15 K, x1 = 0.3103 | 1066.02 | 1.532 | 11.9
298.15 K, x1 = 0.3971 | 1069.57 | 1.5304 | 14.7
298.15 K, x1 = 0.4864 | 1072.4 | 1.5287 | 18.75
298.15 K, x1 = 0.6015 | 1075.14 | 1.5264 | 26.24
298.15 K, x1 = 0.6945 | 1076.58 | 1.5245 | 34.42
298.15 K, x1 = 0.8015 | 1077.73 | 1.5223 | 46.72
298.15 K, x1 = 0.9026 | 1078.72 | 1.5203 | 61.33
303.15 K, x1 = 0.1012 | 1048.56 | 1.5333 | 5.691
303.15 K, x1 = 0.1939 | 1055.61 | 1.5319 | 6.738
303.15 K, x1 = 0.3103 | 1061.88 | 1.53 | 9.274
303.15 K, x1 = 0.3971 | 1065.49 | 1.5285 | 11.46
303.15 K, x1 = 0.4864 | 1068.42 | 1.5268 | 14.62
303.15 K, x1 = 0.6015 | 1071.16 | 1.5246 | 20.5
303.15 K, x1 = 0.6945 | 1072.71 | 1.5227 | 26.62
303.15 K, x1 = 0.8015 | 1073.95 | 1.5206 | 35.94
303.15 K, x1 = 0.9026 | 1074.98 | 1.5186 | 46.96
308.15 K, x1 = 0.1012 | 1045.09 | 1.5308 | 4.951
308.15 K, x1 = 0.1939 | 1052.25 | 1.5295 | 5.953
308.15 K, x1 = 0.3103 | 1058.75 | 1.5277 | 7.695
308.15 K, x1 = 0.3971 | 1062.51 | 1.5263 | 9.977
308.15 K, x1 = 0.4864 | 1065.53 | 1.5247 | 12.61
308.15 K, x1 = 0.6015 | 1068.43 | 1.5226 | 17.36
308.15 K, x1 = 0.6945 | 1070.11 | 1.5209 | 22.13
308.15 K, x1 = 0.8015 | 1071.46 | 1.5189 | 29.01
308.15 K, x1 = 0.9026 | 1072.58 | 1.517 | 36.89
313.15 K, x1 = 0.1012 | 1041.62 | 1.5286 | 4.28
313.15 K, x1 = 0.1939 | 1048.77 | 1.5273 | 5.515
313.15 K, x1 = 0.3103 | 1055.35 | 1.5256 | 7.175
313.15 K, x1 = 0.3971 | 1059.07 | 1.5242 | 8.904
313.15 K, x1 = 0.4864 | 1062.18 | 1.5227 | 11.02
313.15 K, x1 = 0.6015 | 1065.2 | 1.5206 | 15.01
313.15 K, x1 = 0.6945 | 1066.87 | 1.5189 | 18.65
313.15 K, x1 = 0.8015 | 1068.31 | 1.517 | 24.47
313.15 K, x1 = 0.9026 | 1069.52 | 1.5152 | 30.69

OCc1ccccc1 [benzenemethanol]
Conditions | mass density, [1] [kg/m3] | refractive index, [2] | viscosity, [1] [mPa·s]
298.15 K | 1041.64 | 1.5371 | 5.55
303.15 K | 1037.42 | 1.5349 | 4.675
308.15 K | 1033.84 | 1.5323 | 4.01
313.15 K | 1030.43 | 1.5301 | 3.522

CO [methanol]
Conditions | mass density, [1] [kg/m3] | refractive index, [2] | viscosity, [1] [mPa·s]
298.15 K | 786.4 | 1.3266 | 0.532
303.15 K | 782.2 | 1.3243 | 0.515
308.15 K | 776.7 | 1.3224 | 0.465
313.15 K | 772.9 | 1.3208 | 0.441
